These results are taken from US20030171377A1, “Antidiabetic agents” (priority 2001, published 2003).

Structures can show the parent of a compound that is named as a salt.

One series relates to promoter/enhancer of the murine aP2 gene (PPAR-γ ligands). As to the kind of experiment: 3T3-L1 Transient Reporter Assay (AD3T3-L1 Reporter), Test E. Conditions: Mus musculus, 3T3-L1, read-out: AD3T3-L1 Reporter EC50(nM).
As for `Cc1oc(-c2ccccc2)nc1CCCc1ccc(CC(C(=O)O)n2cncn2)cc1` (stereo not shown) [Example 0336683], the EC50 worked out at 9700 nM.

Staying with this series, now noted: maximal response relative to rosiglitazone.
With `Cc1oc(-c2ccccc2)nc1CCCc1ccc(CC(C(=O)O)n2cncn2)cc1` (stereo not shown) [Example 0336683], the “AD3T3-L1 Reporter Max. % Rosi” value came out at 62.8 % Rosi.

Take `Cc1oc(-c2ccccc2)nc1CCCc1ccc(CC(C(=O)O)n2cccn2)cc1` (racemic) [Example 0339165, 3-{4-[3-(5-Methyl-2-phenyl-oxazol-4-yl)-propyl]-phenyl}-2-pyrazol-1-yl-propionic acid]: the “AD3T3-L1 Reporter Max. % Rosi” value is on record as 90 % Rosi.

For `Cc1oc(-c2ccccc2)nc1CCCc1ccc(CC(C(=O)O)n2ccnn2)cc1` (stereo not shown) [Example 0338227], the “AD3T3-L1 Reporter Max. % Rosi” value was 59 % Rosi.

System in a further series: not given
Test: not given
Settings: not given
`Cc1oc(-c2ccccc2)nc1CCCc1ccc(CC(C(=O)O)n2cncn2)cc1` (stereo not shown) [Example 94] gave a melting point of 169 to 171 °C.

In the case of `CCc1nnc(C(Cc2ccc(OCCc3nc(-c4ccccc4)oc3C)cc2)c2ccccc2)o1` (stereo not shown) [Example 43, 2-Ethyl-5-(2-{4-[2-(5-methyl-2-phenyl-oxazol-4-yl)-ethoxy]-phenyl}-1-phenyl-ethyl)-1,3,4-oxadiazole], the melting point turned out to be 110 °C.

For `O=C(O)[C@H](Cc1ccc(OCCn2c(-c3ccccc3)nc3ccccc32)cc1)n1cccc1` (stereo in doubt) [Example 23, 3-{4-[2-(2-Phenyl-benzimidazol-1-yl)-ethoxy]-phenyl}-2-pyrrol-1-yl-propionic acid], the melting point is 210 to 212 °C.

In turn, `Cc1oc(-c2ccccc2)nc1CCOc1ccc(CC(C)(C)C(=O)O)cc1` [Example 40, 2,2-Dimethyl-3-{4-[2-(5-methyl-2-phenyl-oxazol-4-yl)-ethoxy]-phenyl}-propionic acid] showed a melting point of 133 to 134 °C.

In turn, `Cc1oc(-c2ccccc2)nc1CCOc1ccc(CC(C)(C(=O)O)c2cccs2)cc1` (stereo not shown) [Example 73, 2-Methyl-3-{4-[2-(5-methyl-2-phenyl-oxazol-4-yl)-ethoxy]-phenyl}-2-thiophen-2-yl-propionic acid] had a melting point of 165 to 166 °C.

With `Cc1oc(-c2ccccc2)nc1CCN(Cc1ccccc1)Cc1ccc(C[C@@H](C(=O)O)n2cccc2)cc1` (as salt: salt), the melting point fell in the range of 110 to 113 °C.

As to `Cc1oc(-c2ccccc2)nc1CCOc1ccc(C[C@@](C)(C(=O)O)n2cccc2)cc1` [Example 52], the melting point lay in the range of 149.5 to 150.5 °C.

For `Cc1oc(-c2ccccc2)nc1CCOc1cc(CC(C(=O)O)n2cccc2)on1` (stereo not shown) [Example 77, 3-{3-[2-(5-Methyl-2-phenyl-oxazol-4-yl)-ethoxy]-isoxazol-5-yl}-2-pyrrol-1-yl-propionic acid], the melting point lay within 143 to 144 °C.

As to `O=C(O)[C@H](Cc1ccc(/C=C/CN2CCC(c3ccccc3)CC2)cc1)n1cccc1` [Example 129d, (S)-3-{4-[(E)-3-(4-Phenyl-piperidin-1-yl)-propenyl]-phenyl}-2-pyrrol-1-yl-propionic acid], the melting point was in the range of 126 to 130 °C.

As for `O=C(O)[C@H](Cc1ccc(C#CCN2CCC(c3ccccc3)CC2)cc1)n1cccc1` [Example 121c, (S)-3-{4-[3-(4-Phenyl-piperidin-1-yl)-prop-1-ynyl]-phenyl}-2-pyrrol-1-yl-propionic acid], the melting point fell in the range of 201 to 203 °C.

`Cc1oc(-c2ccccc2)nc1CCOc1ccc(CC(F)(C(=O)O)c2ccccc2)cc1` (stereo not shown) [Example 41, 2-Fluoro-3-{4-[2-(5-methyl-2-phenyl-oxazol-4-yl)-ethoxy]-phenyl}-2-phenyl-propionic acid]: the melting point lay within 163 to 165 °C.

Compound `CC(=O)N(CCc1nc(-c2ccccc2)oc1C)Cc1ccc(C[C@@H](C(=O)O)n2cccc2)cc1` [Example 111, (S)-3-[4-({Acetyl-[2-(5-methyl-2-phenyl-oxazol-4-yl)-ethyl]-amino}-methyl)-phenyl]-2-pyrrol-1-yl-propionic acid] had a melting point of 82 to 87 °C.

Compound `Cc1oc(-c2ccccc2)nc1CCOc1cccc2c1ccn2C(C)C(=O)O` (stereo not shown) [Example 65, 2-(4-[2-(5-Methyl-2-phenyl-oxazol-4-yl)-ethoxy]-indol-1-yl)-propionic acid] had a melting point of 157 to 159 °C.

`Cc1oc(-c2ccccc2)nc1CCOc1ccc(CC(C)(C)C(=O)NS(C)(=O)=O)cc1` [Example 75, N-(2,2-Dimethyl-3-{4-[2-(5-methyl-2-phenyl-oxazol-4-yl)-ethoxy]-phenyl}-propionyl)-methanesulfonamide] had a melting point of 112 to 113 °C.

Regarding `Cc1cc(C(Cc2ccc(CCCc3nc(-c4ccccc4)oc3C)cc2)C(=O)O)on1` (stereo not shown) [Example 104, 2-(3-Methyl-isoxazol-5-yl)-3-{4-[3-(5-methyl-2-phenyl-oxazol-4-yl)-propyl]-phenyl}-propionic acid], the melting point was 133 to 135 °C.

Another series concerns the target T1, PPAR alpha (Homo sapiens, UniProt Q07869).
T1 construct: expressed in transfected cells; host or cells: HepG2
T1 sequence (Q07869 1-468): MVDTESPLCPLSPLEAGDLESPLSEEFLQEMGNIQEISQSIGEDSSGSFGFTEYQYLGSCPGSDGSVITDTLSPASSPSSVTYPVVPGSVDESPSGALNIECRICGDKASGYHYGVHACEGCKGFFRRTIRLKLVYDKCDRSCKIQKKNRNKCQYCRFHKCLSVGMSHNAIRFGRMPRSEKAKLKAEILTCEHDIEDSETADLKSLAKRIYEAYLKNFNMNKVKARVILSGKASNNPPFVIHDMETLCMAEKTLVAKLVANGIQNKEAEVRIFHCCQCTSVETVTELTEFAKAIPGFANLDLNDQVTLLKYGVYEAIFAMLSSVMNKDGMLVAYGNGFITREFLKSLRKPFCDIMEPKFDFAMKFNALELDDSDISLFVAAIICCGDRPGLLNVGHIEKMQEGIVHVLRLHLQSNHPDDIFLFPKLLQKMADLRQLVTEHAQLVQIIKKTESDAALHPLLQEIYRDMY
The series is described as follows: HepG2-hALPHA assay (PPAR alpha). Conditions: HepG2 cells. The series is classed as cell-based.
Regarding `CCCCCCCN(CCc1ccc(SC(C)(C)C(=O)O)cc1)C(=O)Nc1ccc(F)cc1F` [GW9578], the “HepG2-hAlpha Max. Res. % GW9578” value turned out to be 100.0 % GW9578 and the “HepG2-hAlpha concentration of Max. Res. (uM, in brackets)” value came out at 1 µM.

A further series has as its system Ob/Ob diabetic mouse model. The series is described as follows: In vivo glucose lowering, Ob/Ob diabetic mouse model. The settings on record: 20 mg/kg.
In the case of `Cc1oc(-c2ccccc2)nc1CCCc1ccc(CC(C(=O)O)n2cncn2)cc1` (stereo not shown) [Example 0336683], the “In vivo Δ Glucose@ 20 mg/kg” value was −53.

Staying with this series, now noted: glucose effect relative to rosiglitazone.
Turning to `Cc1oc(-c2ccccc2)nc1CCCc1ccc(CC(C(=O)O)n2cncn2)cc1` (stereo not shown) [Example 0336683], the “In vivo % Rosiglitazone” value stood at 24.38%.

In the case of `Cc1oc(-c2ccccc2)nc1CCCc1ccc(CC(C(=O)O)n2cccn2)cc1` (racemic) [Example 0339165, 3-{4-[3-(5-Methyl-2-phenyl-oxazol-4-yl)-propyl]-phenyl}-2-pyrazol-1-yl-propionic acid], the “In vivo % Rosiglitazone” value was determined as 102.49%.

Another series concerns the target T2, PPAR gamma (Mus musculus, UniProt P37238).
T2 construct: expressed in transfected cells; host or cells: HepG2
T2 sequence (P37238 1-505): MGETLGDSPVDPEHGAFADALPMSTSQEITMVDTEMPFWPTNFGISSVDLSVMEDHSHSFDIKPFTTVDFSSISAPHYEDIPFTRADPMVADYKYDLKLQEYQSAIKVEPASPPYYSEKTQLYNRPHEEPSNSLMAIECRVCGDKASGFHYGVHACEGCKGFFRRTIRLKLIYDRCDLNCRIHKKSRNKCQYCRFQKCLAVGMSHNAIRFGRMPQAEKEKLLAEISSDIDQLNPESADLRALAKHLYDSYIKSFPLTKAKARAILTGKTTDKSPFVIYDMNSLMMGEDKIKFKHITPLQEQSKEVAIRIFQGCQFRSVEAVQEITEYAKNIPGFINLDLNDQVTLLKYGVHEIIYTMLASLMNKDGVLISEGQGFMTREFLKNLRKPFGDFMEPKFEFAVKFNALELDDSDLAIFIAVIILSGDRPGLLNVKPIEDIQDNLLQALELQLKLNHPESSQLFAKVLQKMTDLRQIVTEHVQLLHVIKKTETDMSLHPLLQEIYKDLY
As to the kind of experiment: HepG2-mGAMMA assay (PPAR gamma). The settings on record: HepG2 cells. The series is classed as cell-based.
Take `CN(CCOc1ccc(CC2SC(=O)NC2=O)cc1)c1ccccn1` (stereo not shown) [Rosiglitazone]: the “HepG2-mGamma Max. Res. % Rosi.” value is reported as 100.0 % Rosi.
